{"source": "paper PMC5602538", "about": "“Assessment of the Drug Interaction Potential of Unconjugated and GalNAc3-Conjugated 2′-MOE-ASOs” (Molecular Therapy. Nucleic Acids, 2017)", "key": {"CYP2B6": {"target": "T1, CYP2B6 (Homo sapiens, UniProt P20813)", "T1 sequence (P20813 1-491)": "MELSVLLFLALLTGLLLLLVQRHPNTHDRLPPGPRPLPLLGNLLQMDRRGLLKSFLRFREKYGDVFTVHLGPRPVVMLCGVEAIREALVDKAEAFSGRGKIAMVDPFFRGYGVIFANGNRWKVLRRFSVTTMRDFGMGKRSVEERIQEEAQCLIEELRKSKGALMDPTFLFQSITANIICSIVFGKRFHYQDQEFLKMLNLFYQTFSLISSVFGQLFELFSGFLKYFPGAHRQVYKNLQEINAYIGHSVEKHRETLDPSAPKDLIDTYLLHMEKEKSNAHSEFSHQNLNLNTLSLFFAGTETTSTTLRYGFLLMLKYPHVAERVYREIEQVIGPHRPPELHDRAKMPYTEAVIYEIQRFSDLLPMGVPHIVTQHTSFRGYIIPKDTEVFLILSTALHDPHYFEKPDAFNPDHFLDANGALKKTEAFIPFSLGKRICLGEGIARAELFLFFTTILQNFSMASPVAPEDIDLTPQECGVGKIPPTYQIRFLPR", "assay": "biochemical", "quoted_text": "(§1) Preincubations were performed in 50 μL of Williams’ Medium E with 2 mM salicylamide. The salicylamide was included to reduce possible phase II conjugation to the precursor phase I metabolites. […] Human hepatocytes (pooled from 5 donors) were thawed and prepared according to the vendor’s protocol. […] Incubations were carried out at 37°C with 5% CO2. The incubation time was 45 min for phenacetin, diclofenac, dextromethorphan, midazolam, bupropion, chlorzoxazone, and testosterone and 90 min for paclitaxel and (S)-mephenytoin. The reactions were stopped by adding 200 μL of ice-cold acetonitrile (can) with tolbutamide (100 ng/mL) as the internal standard to 100 μL of hepatocyte suspension (1:2, v/v). The 96-well plate was then vortexed at 1,700 rpm for 3 min and centrifuged at 3,500 rpm for 10 min at 20°C. The supernatants were analyzed using liquid chromatography-tandem MS (LC-MS/MS)."}, "P-gp": {"test_system": "T2, P-gp", "T2 construct": "host or cells: MDCK-MDR1 (MDCK cells stably transfected with MDR1)", "assay": "P-gp inhibition study in MDCK-MDR1 cells", "type": "in vitro ADME", "settings": "human, probe [3H]-quinidine, 100 nM", "protocol": "MDCK-MDR1 cells and MDCK-II cells transfected with BCRP were washed with HBSS at 37°C. Wells of the culture plate served as the apical compartment, and 150 μL of HBSS solutions was added to the apical wells. These solutions also contain one of the following: vehicle (for probe substrate controls), 100 μM test article (for test article inhibition experiments), 1 μM Ko143 (for BCRP inhibition), or 3 μM elacridar (for P-gp inhibition). A 96-well receiver tray was prepared with each well containing 300 μL of buffer solution corresponding to the apical wells. Receiver tray wells served as the basal compartment. The plate and receiver tray were assembled and incubated at 37°C for 30 min. The solution was then aspirated from the apical compartment and the 96-well plate was removed from the receiver tray. […] These samples were counted on a 1450 Microbeta (PerkinElmer). For samples containing test articles, samples were quantitated using LC-MS.\nNet basal (B) to apical (A) flux (B→A) of the substrate transport by BCRP and P-gp was calculated by subtracting (A→B) flux from (B→A) flux as: netB→Aflux(pmol/min/cm^2)=(B→A)flux-(A→B)flux.\nPercent inhibition was calculated by dividing the net flux (B→A) in the presence of the test article or the reference inhibitor by the net flux (B→A) in the absence of the inhibitor as: %inhibition=100−(100×netfluxwithinhibitor/(meannetflux)withoutinhibitor)."}, "CYP2E1": {"target": "CYP2E1 (Homo sapiens, UniProt P05181)", "sequence (P05181 whole entry)": "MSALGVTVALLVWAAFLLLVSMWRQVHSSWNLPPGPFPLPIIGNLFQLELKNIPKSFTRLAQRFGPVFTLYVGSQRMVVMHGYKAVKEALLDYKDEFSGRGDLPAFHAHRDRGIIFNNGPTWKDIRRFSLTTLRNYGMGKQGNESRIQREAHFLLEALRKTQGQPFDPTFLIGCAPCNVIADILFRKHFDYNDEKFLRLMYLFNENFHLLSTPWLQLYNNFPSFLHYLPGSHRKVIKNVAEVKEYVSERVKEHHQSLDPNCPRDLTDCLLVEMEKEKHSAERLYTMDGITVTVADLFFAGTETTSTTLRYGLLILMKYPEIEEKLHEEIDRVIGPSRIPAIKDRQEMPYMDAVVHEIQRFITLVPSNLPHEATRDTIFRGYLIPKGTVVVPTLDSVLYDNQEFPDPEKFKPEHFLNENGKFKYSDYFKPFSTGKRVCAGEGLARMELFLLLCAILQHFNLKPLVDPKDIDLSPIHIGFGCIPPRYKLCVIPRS", "assay": "CYP2E1 inhibition in cryopreserved human hepatocyte suspensions (chlorzoxazone probe)", "quoted_text": "as §1"}}, "data": [{"smiles": "COC(=O)[C@H](c1ccccc1Cl)N1CCc2sccc2C1", "note": "[clopidogrel]", "values": [{"measurement": "IC50", "setting": "CYP2B6", "result": 163, "unit": "nM"}]}, {"smiles": "COc1cc2c(cc1OC)CN(CCc1ccc(NC(=O)c3cccc4c(=O)c5cccc(OC)c5[nH]c34)cc1)CC2", "note": "[elacridar]", "values": [{"measurement": "inhibition at 90 min, 3 μM", "setting": "P-gp", "result": "90.2 ± 1.42", "unit": "%"}]}, {"smiles": "Cc1ncsc1CCCl", "note": "[chlormethiazole]", "values": [{"measurement": "IC50", "setting": "CYP2E1", "result": 1.08, "unit": "nM"}]}]}
